This is an account of results in ChEMBL document CHEMBL1151514, “Imetit and N-methyl derivatives. The transition from potent agonist to antagonist at histamine H3 receptors.1” (Bioorg Med Chem Lett, 1992).

Assay [1] concerns the target T1, Histamine H3 receptor (Rattus norvegicus, UniProt Q9QYN8). As to the kind of experiment: The compound was evaluated for antagonistic effect on release of [3H]histamine from rat brain cortical slices with L-[3H]histidine at 0.3 uM. It is filed as functional, tissue-based.
The species entered for a further assay is Rattus norvegicus. As to the kind of experiment: Concentrations required for half-maximal inhibition of tritiated amine release from rat cortical slices. It is filed as functional.
Assay [2] addresses T1, Histamine H3 receptor. Nature of the assay: Compound was evaluated for antagonistic effect on release of [3H]histamine from rat brain cortical slices with L-[3H]histidine at 0.3 uM. It is filed as functional, tissue-based.
The target in assay [3] is T1, Histamine H3 receptor. As to the kind of experiment: The compound was evaluated for agonistic effect on release of [3H]histamine from rat brain cortical slices with L-[3H]histidine at 0.3 uM. It is filed as functional, tissue-based.
The test system of a further assay is Mus musculus. Nature of the assay: Compound was tested for in vivo in mice which produced a decrease in the brain level of N-tele-methylhistamine when administered orally. It is filed as functional. Conditions: po.

SMILES strings stand for the structures. Some results are limits rather than exact numbers.

T1 sequence (Q9QYN8 whole entry): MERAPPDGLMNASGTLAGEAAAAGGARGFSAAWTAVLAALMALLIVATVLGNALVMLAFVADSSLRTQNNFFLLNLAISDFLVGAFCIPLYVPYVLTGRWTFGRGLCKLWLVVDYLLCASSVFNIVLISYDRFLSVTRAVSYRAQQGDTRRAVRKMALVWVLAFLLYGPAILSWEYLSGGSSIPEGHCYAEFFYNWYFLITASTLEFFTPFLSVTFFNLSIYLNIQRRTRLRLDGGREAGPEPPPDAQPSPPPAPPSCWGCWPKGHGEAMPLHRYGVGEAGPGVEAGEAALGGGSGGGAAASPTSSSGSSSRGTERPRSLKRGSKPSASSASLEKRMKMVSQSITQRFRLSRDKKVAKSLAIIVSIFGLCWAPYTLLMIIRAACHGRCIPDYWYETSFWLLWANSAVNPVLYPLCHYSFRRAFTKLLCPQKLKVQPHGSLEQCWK

For `C/N=C(\NC)SCCc1c[nH]cn1`, the affinity on Histamine H3 receptor [1], expressed as Ki, was 51 nM. Same read-out and setting: for `c1nc(CCSC2=NCCN2)c[nH]1` the value was 260 nM. For the molecule `C/N=C(/SCCc1c[nH]cn1)N(C)C`, in the assay listed under Rattus norvegicus, a half-maximal response (EC50) required 1 nM. The Ki (as a rule, the dissociation constant of the complex between target and ligand, obtained from inhibition or displacement) on Histamine H3 receptor [2] is no less than 500 nM.

Turning to `CN(C)C(=N)SCCc1c[nH]cn1`, the affinity at Histamine H3 receptor [1] corresponds to a Ki of 500 nM. As to `Br.CNC(=N)SCCc1c[nH]cn1`, a half-maximal response on Histamine H3 receptor [3] (EC50) required 15 nM. In the assay with Mus musculus, it took a dose of 25 mg/kg to reach the 50% effect level (ED50). For `Br.N=C(N)SCCc1c[nH]cn1` [IMETIT DIHYDROBROMIDE], the ED50 (commonly the midpoint of the dose-response relation) with Mus musculus was roughly 1 mg/kg.
